Laboratory results: ChEMBL document CHEMBL1201862, “PubChem BioAssay data set” (2004)
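Five compound concentrations were applied to cells in 96-well plates for 48 hours; endpoints were derived by simple linear interpolation of the resulting dose-response curve. GI50 = concentration required for 50% inhibition of growth.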 Activity calls are given as the source filed them. Cut-off read from the data, not from the text of the source: active = GI50 up to about 1.1 µM and inactive = higher.

Legend:
Test in all cases: inhibition of tumour cell growth, NCI panel, 48 h
[1] = test system: KM12
[2] = test system: OVCAR-4
[3] = test system: SNB-78
[4] = test system: CAKI-1
[5] = test system: EKVX
[6] = test system: RPMI-8226
[7] = test system: ACHN
[8] = test system: RXF 393
[9] = test system: COLO 205
[10] = test system: SNB-75
[11] = test system: SF-268
[12] = test system: Malme-3M
[13] = test system: SR
[14] = test system: SF-539
[15] = test system: 786-0
[16] = test system: NCI-H226
[17] = test system: SF-295
[18] = test system: MOLT-4

Row | Structure (SMILES) | GI50 [1] | GI50 [2] | GI50 [3] | GI50 [4] | GI50 [5] | GI50 [6] | GI50 [7] | GI50 [8] | GI50 [9] | GI50 [10] | GI50 [11] | GI50 [12] | GI50 [13] | GI50 [14] | GI50 [15] | GI50 [16] | GI50 [17] | GI50 [18]
1 | CSC(=S)N/N=C/c1nccc2ccccc12 | 2.68 µM (inactive) | 1.16 µM (inactive) | 3.18 µM (inactive) | 2.34 µM (inactive) | 2.52 µM (inactive) | 0.522 µM (active) | 1.23 µM (inactive) | 0.721 µM (active) | 0.138 µM (active) | 0.522 µM (active) | 1.04 µM (active) | 1.34 µM (inactive) | 0.291 µM (active) | 1.08 µM (active) | 2.39 µM (inactive) | 1.69 µM (inactive) | 1.48 µM (inactive) | 0.204 µM (active)
2 | CC(=O)O[C@]1(C)OC(=O)[C@@H](CC(C)C)N1[N+](=O)[O-] | > 100 µM (inactive) | > 100 µM (inactive) | > 100 µM (inactive) |  | > 100 µM (inactive) | > 100 µM (inactive) | > 100 µM (inactive) | 60.7 µM (inactive) | > 100 µM (inactive) | > 100 µM (inactive) |  | > 100 µM (inactive) | > 100 µM (inactive) | > 100 µM (inactive) | > 100 µM (inactive) | > 100 µM (inactive) | > 100 µM (inactive) | > 100 µM (inactive)
3 | CC1(C)OC(=O)C(=C2CC(c3ccccc3)c3ccccc32)C(=O)O1 (stereo unspecified) |  | > 100 µM (inactive) | > 100 µM (inactive) | > 100 µM (inactive) | > 100 µM (inactive) | > 100 µM (inactive) | > 100 µM (inactive) | > 100 µM (inactive) | > 100 µM (inactive) | > 100 µM (inactive) | > 100 µM (inactive) | > 100 µM (inactive) | > 100 µM (inactive) | > 100 µM (inactive) | > 100 µM (inactive) | > 100 µM (inactive) | > 100 µM (inactive) | > 100 µM (inactive)
4 | [O-][S+]1Nc2cccc(C(F)(F)F)c2S1 (stereo unspecified) | 21.4 µM (inactive) | 46.7 µM (inactive) | 31.2 µM (inactive) | 30.5 µM (inactive) | 38.8 µM (inactive) | 29 µM (inactive) | 37.2 µM (inactive) | 22.5 µM (inactive) | 19.8 µM (inactive) | 29.6 µM (inactive) | 48 µM (inactive) | 51.2 µM (inactive) | 25.5 µM (inactive) | 58.6 µM (inactive) | 42.1 µM (inactive) | 73.3 µM (inactive) | 45.4 µM (inactive) | 21 µM (inactive)
5 | O=c1nc2sc3ccc4ccccc4c3n2nc1-c1ccccc1 | 63.5 µM (inactive) | 14.7 µM (inactive) | 35.8 µM (inactive) | 31.1 µM (inactive) | 41.8 µM (inactive) |  | 27.8 µM (inactive) | 21 µM (inactive) | 56.2 µM (inactive) | 21.1 µM (inactive) | 37.3 µM (inactive) | 21.4 µM (inactive) | 71.6 µM (inactive) | 14.8 µM (inactive) | 18.7 µM (inactive) | 59.2 µM (inactive) | 16.8 µM (inactive) | > 100 µM (inactive)
6 | CCOC(=O)NC(=O)c1cn(CCN2CCN(C(=O)CCCCCCCCCCNc3ncnc4[nH]cnc34)CC2)c(=O)[nH]c1=O | > 100 µM (inactive) | > 100 µM (inactive) | 32.4 µM (inactive) | 79.8 µM (inactive) | > 100 µM (inactive) | 94 µM (inactive) | 37.8 µM (inactive) | > 100 µM (inactive) | > 100 µM (inactive) | > 100 µM (inactive) | 13.1 µM (inactive) | 6.7 µM (inactive) | > 100 µM (inactive) | > 100 µM (inactive) | > 100 µM (inactive) | > 100 µM (inactive) | > 100 µM (inactive) | 43.9 µM (inactive)
7 | O=C(c1ccc(Cl)cc1)c1ccc(OCCCCCCCCCCOc2ccc(C(=O)c3ccc(Cl)cc3)cc2)cc1 | > 100 µM (inactive) |  | > 100 µM (inactive) | > 100 µM (inactive) | > 100 µM (inactive) | > 100 µM (inactive) | > 100 µM (inactive) | > 100 µM (inactive) | > 100 µM (inactive) | > 100 µM (inactive) | > 100 µM (inactive) | > 100 µM (inactive) |  |  | > 100 µM (inactive) | > 100 µM (inactive) | > 100 µM (inactive) | > 100 µM (inactive)
8 | COc1cc2cc(OC)c3cc4c(cc3c2c(OC)c1OC)OCO4 | 14.2 µM (inactive) | 39.4 µM (inactive) | 50.2 µM (inactive) | 33 µM (inactive) | 50.6 µM (inactive) | 14.7 µM (inactive) | 52.5 µM (inactive) | 42.9 µM (inactive) | 19.6 µM (inactive) | 7.55 µM (inactive) | > 51.1 µM (inactive) | 52.4 µM (inactive) | 18.5 µM (inactive) | 31.6 µM (inactive) | 27.9 µM (inactive) | > 100 µM (inactive) | 28.1 µM (inactive) | 22.8 µM (inactive)
9 | O=[N+]([O-])c1ccc(C2N3CCCCC3[C@@H]3c4[nH]c5ccccc5c4CCN23)cc1 (stereo partly specified) |  | 22.6 µM (inactive) | 3.96 µM (inactive) | 26.9 µM (inactive) | 29.9 µM (inactive) | 16.5 µM (inactive) | 12.8 µM (inactive) | 4.59 µM (inactive) | 17.6 µM (inactive) | 0.0638 µM (active) | 15.4 µM (inactive) | < 0.01 µM (active) | 3.12 µM (inactive) | 13.3 µM (inactive) | 28.1 µM (inactive) |  | 26.1 µM (inactive) | 10.2 µM (inactive)
10 | COc1cc(C(=O)C/C(CCC(=O)Nc2ccccc2[N+](=O)[O-])=N\NC(N)=O)ccc1O | > 100 µM (inactive) |  | > 100 µM (inactive) | > 100 µM (inactive) | 32.9 µM (inactive) | > 100 µM (inactive) | > 100 µM (inactive) | > 100 µM (inactive) | > 100 µM (inactive) | > 100 µM (inactive) | > 100 µM (inactive) | > 100 µM (inactive) | > 100 µM (inactive) | > 100 µM (inactive) | > 100 µM (inactive) | > 100 µM (inactive) | > 100 µM (inactive) | > 100 µM (inactive)
11 | CC(=O)Nc1ccc(-c2nnc(SCC(=O)Nc3ccccc3[N+](=O)[O-])o2)cc1 | > 100 µM (inactive) | 73.1 µM (inactive) | > 100 µM (inactive) | > 100 µM (inactive) |  | > 100 µM (inactive) | > 100 µM (inactive) | > 100 µM (inactive) | > 100 µM (inactive) | 92.7 µM (inactive) | > 100 µM (inactive) | > 100 µM (inactive) | 40.7 µM (inactive) | 34.6 µM (inactive) | > 100 µM (inactive) | > 100 µM (inactive) | 98.6 µM (inactive) | 71.4 µM (inactive)
12 | C1CCOC2(CCC3(CC2)OCCCCO3)OC1 | > 100 µM (inactive) | > 100 µM (inactive) | > 100 µM (inactive) | > 100 µM (inactive) |  | > 100 µM (inactive) | > 100 µM (inactive) | > 100 µM (inactive) | > 100 µM (inactive) | > 100 µM (inactive) | > 100 µM (inactive) | > 100 µM (inactive) | > 100 µM (inactive) | > 100 µM (inactive) | > 100 µM (inactive) | > 100 µM (inactive) |  | > 100 µM (inactive)
13 | CCCC(O)[C@@H](O)c1ccc2c(c1O)C(=O)c1c(OC)cccc1C2=O (stereo partly specified) | 35.6 µM (inactive) | 25 µM (inactive) | 36.6 µM (inactive) | 27.8 µM (inactive) | 55.1 µM (inactive) | 5.73 µM (inactive) | 34.4 µM (inactive) |  | 20.9 µM (inactive) | 47 µM (inactive) | 57.7 µM (inactive) | 40.7 µM (inactive) | 26.4 µM (inactive) | 24.2 µM (inactive) | 37.5 µM (inactive) | 27.3 µM (inactive) | 33 µM (inactive) | 21.1 µM (inactive)
14 | CCCCCCCCCCCCCCCCCC(=O)NCC(COP(=O)([O-])OCC[N+](C)(C)C)OC (stereo unspecified) | 0.766 µM (active) | 3.6 µM (inactive) | 4.3 µM (inactive) | 2.44 µM (inactive) | 16.3 µM (inactive) | 1.63 µM (inactive) | 10.8 µM (inactive) | 0.652 µM (active) | 1.48 µM (inactive) | 5 µM (inactive) | 5.2 µM (inactive) | 8.59 µM (inactive) | 2.16 µM (inactive) | 17.6 µM (inactive) | 1.5 µM (inactive) | 3.44 µM (inactive) | 3.46 µM (inactive) | 1.76 µM (inactive)
15 | Cn1c2ccccc2c2[nH]cc3nc4ccccc4c-3c21 | 17 µM (inactive) | 15.6 µM (inactive) | 24.5 µM (inactive) | 25.1 µM (inactive) | 9.71 µM (inactive) | 19.2 µM (inactive) | 20.4 µM (inactive) | 16.1 µM (inactive) | 16.9 µM (inactive) | 19.5 µM (inactive) | 22.8 µM (inactive) | > 100 µM (inactive) |  | 18 µM (inactive) | > 100 µM (inactive) | 22.4 µM (inactive) | 22.1 µM (inactive) | 23.8 µM (inactive)
16 | COc1ccc(C2Cc3cc(OC)c(OC)c(OC)c3C2)cc1 (stereo unspecified) | 23 µM (inactive) | 59.6 µM (inactive) | 72.6 µM (inactive) | 36.9 µM (inactive) | 29 µM (inactive) | 18.8 µM (inactive) | 39.1 µM (inactive) |  | 66.7 µM (inactive) | 24.2 µM (inactive) | 47.1 µM (inactive) | 22.8 µM (inactive) |  | 64.7 µM (inactive) | 61.4 µM (inactive) | 34.9 µM (inactive) | 41.1 µM (inactive) | 22.4 µM (inactive)
